Tests used:
Type in all cases: biochemical
PKC theta kinase = PKC theta kinase (Homo sapiens, UniProt Q04759); assay: PKC theta kinase inhibition, coupled-enzyme (NADH absorbance) assay, Ki; settings: 240 μM ATP, 18 nM PKC theta kinase, 30° C.
Description: An assay buffer solution was prepared which consisted of 100 mM HEPES (pH 7.5), 10 mM MgCl2, 25 mM NaCl, 0.1 mM EDTA and 0.01% Brij. […] To 60 μL of this enzyme buffer, in a 384 well plate, was added 2 μL of VRT stock solution in DMSO. The mixture was allowed to equilibrate for 10 mins at 30° C. […] Ki values were calculated from initial rate data by non-linear regression using the Prism software package (Prism 4.0a, Graphpad Software, San Diego, Calif.).

PKC delta kinase = PKC delta kinase (Homo sapiens, UniProt Q05655); assay: PKC delta kinase inhibition, coupled-enzyme (NADH absorbance) assay, Ki; settings: 150 μM ATP, 46 nM PKC delta kinase, 30° C.; read-out: Ki PKC delta
Description: (§1) An assay buffer solution was prepared which consisted of 100 mM HEPES (pH 7.5), 10 mM MgCl2, 25 mM NaCl, 0.1 mM EDTA and 0.01% Brij. […] To 16 μL of this enzyme buffer, in a 384 well plate, was added 1 μL of VRT stock solution in DMSO. The mixture was allowed to equilibrate for 10 mins at 30° C. The enzyme reaction was initiated by the addition of 16 μL stock ATP solution prepared in assay buffer to a final assay concentration of 150 μM. Initial rate data was determined from the rate of change of absorbance at 340 nm (corresponding to stoichiometric consumption of NADH) using a Molecular Devices Spectramax plate reader (Sunnyvale, Calif.) over 15 mins at 30° C. […] Ki values were calculated from initial rate data by non-linear regression using the Prism software package (Prism 4.0a, Graphpad Software, San Diego, Calif.).

PKC alpha kinase = PKC alpha kinase (Homo sapiens, UniProt P17252); assay: PKC alpha kinase inhibition, coupled-enzyme (NADH absorbance) assay, Ki; settings: 130 μM ATP, 4.5 nM PKC alpha kinase, 30° C.
Description: as §1, with “EDTA, 100 μM CaCl2” for “EDTA”, “130” for “150”

Sequence of PKC delta kinase (Q05655 whole entry): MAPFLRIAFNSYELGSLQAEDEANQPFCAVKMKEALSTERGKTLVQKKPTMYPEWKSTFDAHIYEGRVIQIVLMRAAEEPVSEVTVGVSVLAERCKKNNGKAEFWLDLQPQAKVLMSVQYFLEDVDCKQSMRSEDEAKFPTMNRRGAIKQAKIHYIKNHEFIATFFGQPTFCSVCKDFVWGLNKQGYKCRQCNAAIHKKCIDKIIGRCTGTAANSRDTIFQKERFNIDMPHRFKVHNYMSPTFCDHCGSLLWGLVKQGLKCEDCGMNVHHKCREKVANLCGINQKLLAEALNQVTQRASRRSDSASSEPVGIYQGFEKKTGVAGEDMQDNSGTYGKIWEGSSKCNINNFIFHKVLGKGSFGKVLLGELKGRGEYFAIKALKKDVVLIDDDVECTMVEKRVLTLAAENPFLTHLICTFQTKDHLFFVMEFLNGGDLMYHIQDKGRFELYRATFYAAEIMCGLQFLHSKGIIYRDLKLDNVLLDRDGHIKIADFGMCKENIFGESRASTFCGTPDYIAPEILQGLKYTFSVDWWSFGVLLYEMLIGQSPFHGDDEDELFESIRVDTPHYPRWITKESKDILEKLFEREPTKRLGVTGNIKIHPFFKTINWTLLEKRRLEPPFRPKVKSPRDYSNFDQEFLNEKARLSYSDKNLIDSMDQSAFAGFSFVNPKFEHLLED
Sequence of PKC theta kinase (Q04759 whole entry): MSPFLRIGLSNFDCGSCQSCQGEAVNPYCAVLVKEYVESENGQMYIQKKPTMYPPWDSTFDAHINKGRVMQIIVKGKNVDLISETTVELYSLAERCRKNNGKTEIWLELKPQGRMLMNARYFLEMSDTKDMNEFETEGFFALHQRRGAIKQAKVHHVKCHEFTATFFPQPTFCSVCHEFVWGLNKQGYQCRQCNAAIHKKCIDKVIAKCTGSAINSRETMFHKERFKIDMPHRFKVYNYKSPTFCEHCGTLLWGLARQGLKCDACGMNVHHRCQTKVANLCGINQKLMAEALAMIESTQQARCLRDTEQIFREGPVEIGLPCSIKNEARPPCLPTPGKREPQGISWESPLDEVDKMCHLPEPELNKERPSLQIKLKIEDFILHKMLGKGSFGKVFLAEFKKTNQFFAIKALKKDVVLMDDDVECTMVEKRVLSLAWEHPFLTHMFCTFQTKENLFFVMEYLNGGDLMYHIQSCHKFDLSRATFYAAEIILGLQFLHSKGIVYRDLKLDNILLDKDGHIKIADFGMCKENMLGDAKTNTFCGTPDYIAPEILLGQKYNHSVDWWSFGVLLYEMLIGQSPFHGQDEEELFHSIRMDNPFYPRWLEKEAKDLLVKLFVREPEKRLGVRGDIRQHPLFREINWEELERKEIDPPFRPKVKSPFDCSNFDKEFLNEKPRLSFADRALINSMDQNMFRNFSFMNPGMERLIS

Cc1cc(N2CCN[C@@H](CC(C)C)C2)nc(-c2n[nH]c3ncccc23)c1Cl [Compound 58]
Ki (PKC theta kinase): < 500 nM | Ki (PKC delta kinase): < 2800 nM | Ki (PKC alpha kinase): > 1250 nM

CCCC1CN(c2cccc(-c3n[nH]c4ncccc34)n2)CCN1 (stereo not drawn) [Compound 59]
Ki (PKC theta kinase): < 50 nM | Ki (PKC delta kinase): < 500 nM | Ki (PKC alpha kinase): < 2800 nM

OC1(c2cccc(-c3n[nH]c4ncccc34)n2)CCNCC1 [Compound 60, 4-(6-(1H-pyrazolo[3,4-b]pyridin-3-yl)pyridin-2-yl)piperidin-4-ol]
Ki (PKC theta kinase): > 700 nM | Ki (PKC delta kinase): < 500 nM | Ki (PKC alpha kinase): > 1250 nM

NC1CCN(c2cccc(-c3n[nH]c4ncccc34)n2)CC1 [Compound 61]
Ki (PKC theta kinase): < 500 nM | Ki (PKC delta kinase): < 2800 nM | Ki (PKC alpha kinase): > 1250 nM

NC1CN(c2cccc(-c3n[nH]c4ncccc34)n2)C1 [Compound 63]
Ki (PKC theta kinase): < 2800 nM | Ki (PKC delta kinase): > 2000 nM | Ki (PKC alpha kinase): > 1250 nM

NCC1CCN(c2cccc(-c3n[nH]c4ncccc34)n2)CC1 [Compound 64]
Ki (PKC theta kinase): < 500 nM | Ki (PKC delta kinase): < 2800 nM | Ki (PKC alpha kinase): > 1250 nM

FC(F)(F)c1ccc(N2CCNC(C(F)(F)F)C2)nc1-c1n[nH]c2ncccc12 (stereo not drawn) [Compound 65]
Ki (PKC theta kinase): < 500 nM | Ki (PKC delta kinase): > 2000 nM | Ki (PKC alpha kinase): > 1250 nM

CC(C)C[C@H]1CN(c2ccnc(-c3n[nH]c4ncccc34)n2)CCN1 [Compound 66]
Ki (PKC theta kinase): < 500 nM | Ki (PKC delta kinase): < 2800 nM | Ki (PKC alpha kinase): > 1250 nM

NC1CCCN(c2cccc(-c3n[nH]c4ncccc34)n2)C1 (stereo not drawn) [Compound 68]
Ki (PKC theta kinase): < 500 nM | Ki (PKC delta kinase): < 500 nM | Ki (PKC alpha kinase): < 2800 nM

Cc1cc(C)c(CC2CN(c3cccc(-c4n[nH]c5ncccc45)n3)CCN2)c(C)c1 (stereo not drawn) [Compound 69]
Ki (PKC theta kinase): > 700 nM | Ki (PKC delta kinase): > 2000 nM | Ki (PKC alpha kinase): > 1250 nM

CC(C)(F)CC1CN(c2cccc(-c3n[nH]c4ncccc34)n2)CCN1 (stereo not drawn) [Compound 71]
Ki (PKC theta kinase): < 50 nM | Ki (PKC delta kinase): < 500 nM | Ki (PKC alpha kinase): > 1250 nM

CC(C)(O)CC1CN(c2ccc(C(F)(F)F)c(-c3n[nH]c4ncccc34)n2)CCN1 (stereo not drawn) [Compound 72]
Ki (PKC theta kinase): < 500 nM | Ki (PKC delta kinase): > 2000 nM | Ki (PKC alpha kinase): > 1250 nM

CC(C)C[C@@H]1CC(O)(c2cccc(-c3n[nH]c4ncccc34)n2)CCN1 (stereo partly drawn) [Compound 73]
Ki (PKC theta kinase): > 700 nM | Ki (PKC delta kinase): > 2000 nM | Ki (PKC alpha kinase): > 1250 nM

NCC1CCCN(c2cccc(-c3n[nH]c4ncccc34)n2)C1 (stereo not drawn) [Compound 74]
Ki (PKC theta kinase): < 500 nM | Ki (PKC delta kinase): < 500 nM | Ki (PKC alpha kinase): < 2800 nM

CC[C@H]1CN(c2ccc(C(F)(F)F)c(-c3n[nH]c4ncccc34)n2)CCN1 [Compound 75]
Ki (PKC theta kinase): < 500 nM | Ki (PKC delta kinase): < 2800 nM | Ki (PKC alpha kinase): > 1250 nM

CC(C)(C)[C@H]1CN(c2cccc(-c3n[nH]c4ncccc34)n2)CCN1 [Compound 76]
Ki (PKC theta kinase): < 50 nM | Ki (PKC delta kinase): < 500 nM | Ki (PKC alpha kinase): < 2800 nM

CC(C)(C)[C@H]1CN(c2ccc(C(F)(F)F)c(-c3n[nH]c4ncccc34)n2)CCN1 [Compound 77]
Ki (PKC theta kinase): < 500 nM | Ki (PKC delta kinase): > 2000 nM | Ki (PKC alpha kinase): > 1250 nM

CC(C)(C)[C@H]1CN(c2ccc(Cl)c(-c3n[nH]c4ncccc34)n2)CCN1 [Compound 78]
Ki (PKC theta kinase): < 500 nM | Ki (PKC delta kinase): < 2800 nM | Ki (PKC alpha kinase): > 1250 nM

CC1(C)CN(c2cccc(-c3n[nH]c4ncccc34)n2)CCN1 [Compound 79]
Ki (PKC theta kinase): < 50 nM | Ki (PKC delta kinase): < 500 nM | Ki (PKC alpha kinase): > 1250 nM

CC1(C)CN(c2ccc(C(F)(F)F)c(-c3n[nH]c4ncccc34)n2)CCN1 [Compound 80]
Ki (PKC theta kinase): < 500 nM | Ki (PKC delta kinase): < 500 nM | Ki (PKC alpha kinase): > 1250 nM

c1cnc2[nH]nc(-c3nccc(N4CCNCC4)n3)c2c1 [Compound 81, 3-(4-(piperazin-1-yl)pyrimidin-2-yl)-1H-pyrazolo[3,4-b]pyridine]
Ki (PKC theta kinase): > 700 nM | Ki (PKC delta kinase): > 2000 nM | Ki (PKC alpha kinase): > 1250 nM

CC(C)CC1(C)CN(c2ccc(C(F)(F)F)c(-c3n[nH]c4ncccc34)n2)CCN1 (stereo not drawn) [Compound 82]
Ki (PKC theta kinase): < 50 nM | Ki (PKC delta kinase): < 500 nM | Ki (PKC alpha kinase): < 500 nM

FC1(c2cccc(-c3n[nH]c4ncccc34)n2)CCNCC1 [Compound 83]
Ki (PKC theta kinase): < 50 nM | Ki (PKC delta kinase): < 500 nM | Ki (PKC alpha kinase): < 2800 nM

CC(C)C[C@H]1CN(c2ccc(C(F)(F)F)c(-c3n[nH]c4ncccc34)n2)CC[C@H]1N [Compound 84]
Ki (PKC theta kinase): < 50 nM | Ki (PKC delta kinase): < 500 nM | Ki (PKC alpha kinase): < 2800 nM

Reference: patent publication US9193722B2, “Tri-cyclic pyrazolopyridine kinase inhibitors” (Vertex Pharmaceuticals Incorporated, priority 2008, dated 2015)
